Common to all, as to test: pIC50, kinobeads binding competition
The target in one experiment is T1, BRSK1 (UniProt Q8TDC3).
T1 sequence (whole entry): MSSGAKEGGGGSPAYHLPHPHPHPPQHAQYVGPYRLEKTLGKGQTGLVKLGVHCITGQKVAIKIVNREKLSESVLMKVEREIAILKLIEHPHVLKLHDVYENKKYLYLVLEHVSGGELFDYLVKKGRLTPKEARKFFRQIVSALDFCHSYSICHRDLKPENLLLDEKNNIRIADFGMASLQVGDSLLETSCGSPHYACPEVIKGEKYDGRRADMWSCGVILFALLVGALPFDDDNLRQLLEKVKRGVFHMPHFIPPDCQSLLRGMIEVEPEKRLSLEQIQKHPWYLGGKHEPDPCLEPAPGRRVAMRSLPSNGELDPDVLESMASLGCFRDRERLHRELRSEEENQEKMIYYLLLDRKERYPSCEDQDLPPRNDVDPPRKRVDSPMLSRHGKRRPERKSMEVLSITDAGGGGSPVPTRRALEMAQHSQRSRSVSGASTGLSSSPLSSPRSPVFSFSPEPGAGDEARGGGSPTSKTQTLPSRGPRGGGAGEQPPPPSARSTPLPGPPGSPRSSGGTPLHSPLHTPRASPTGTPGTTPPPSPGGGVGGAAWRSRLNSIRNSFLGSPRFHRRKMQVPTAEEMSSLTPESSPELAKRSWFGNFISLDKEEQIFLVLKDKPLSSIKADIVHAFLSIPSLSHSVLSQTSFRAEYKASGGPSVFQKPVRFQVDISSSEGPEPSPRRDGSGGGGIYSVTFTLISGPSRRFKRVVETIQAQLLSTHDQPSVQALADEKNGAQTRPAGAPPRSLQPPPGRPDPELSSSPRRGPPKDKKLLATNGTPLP
The method in brief:
(§1)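 To obtain pIC50, fold changes versus vehicle were fitted to logistic dose-response curves (R drc package) across biological duplicates. Protein binding to Kinobeads was quantified by TMT10 LC-MS/MS of digested bead-bound proteins. Treatments used nine concentrations with a top of 30 μM, applied to live Jurkat cells in 1:4 steps for 60 min at 37 °C before lysis, or to Jurkat lysate or a 1:1:1:1 HEK293/K-562/HepG2/placenta lysate mix in 1:5 steps for 60 min at 4 °C.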

In another experiment the target is PRKCH (UniProt P24723). The method, boiled down: as §1
PRKCH, sequence (P24723 whole entry, looked up): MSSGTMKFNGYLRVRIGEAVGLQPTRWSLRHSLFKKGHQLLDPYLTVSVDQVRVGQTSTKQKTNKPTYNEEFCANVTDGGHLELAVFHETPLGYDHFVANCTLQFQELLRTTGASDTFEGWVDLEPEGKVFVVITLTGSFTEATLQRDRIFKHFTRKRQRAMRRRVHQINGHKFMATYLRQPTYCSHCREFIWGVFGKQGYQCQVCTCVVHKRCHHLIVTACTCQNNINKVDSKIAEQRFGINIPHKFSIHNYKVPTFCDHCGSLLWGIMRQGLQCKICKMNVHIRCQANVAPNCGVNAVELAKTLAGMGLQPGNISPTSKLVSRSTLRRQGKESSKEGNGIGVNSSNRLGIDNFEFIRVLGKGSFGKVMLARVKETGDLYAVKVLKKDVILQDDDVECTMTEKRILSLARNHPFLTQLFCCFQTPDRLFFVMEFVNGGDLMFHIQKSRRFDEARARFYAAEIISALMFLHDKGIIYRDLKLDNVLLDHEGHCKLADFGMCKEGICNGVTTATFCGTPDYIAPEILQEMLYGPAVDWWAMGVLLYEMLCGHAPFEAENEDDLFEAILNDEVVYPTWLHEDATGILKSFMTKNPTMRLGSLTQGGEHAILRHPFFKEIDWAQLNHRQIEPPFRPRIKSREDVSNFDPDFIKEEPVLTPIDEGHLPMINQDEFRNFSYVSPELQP
The target in the next experiment is T2, SNRK (UniProt Q9NRH2).
T2 sequence (whole entry): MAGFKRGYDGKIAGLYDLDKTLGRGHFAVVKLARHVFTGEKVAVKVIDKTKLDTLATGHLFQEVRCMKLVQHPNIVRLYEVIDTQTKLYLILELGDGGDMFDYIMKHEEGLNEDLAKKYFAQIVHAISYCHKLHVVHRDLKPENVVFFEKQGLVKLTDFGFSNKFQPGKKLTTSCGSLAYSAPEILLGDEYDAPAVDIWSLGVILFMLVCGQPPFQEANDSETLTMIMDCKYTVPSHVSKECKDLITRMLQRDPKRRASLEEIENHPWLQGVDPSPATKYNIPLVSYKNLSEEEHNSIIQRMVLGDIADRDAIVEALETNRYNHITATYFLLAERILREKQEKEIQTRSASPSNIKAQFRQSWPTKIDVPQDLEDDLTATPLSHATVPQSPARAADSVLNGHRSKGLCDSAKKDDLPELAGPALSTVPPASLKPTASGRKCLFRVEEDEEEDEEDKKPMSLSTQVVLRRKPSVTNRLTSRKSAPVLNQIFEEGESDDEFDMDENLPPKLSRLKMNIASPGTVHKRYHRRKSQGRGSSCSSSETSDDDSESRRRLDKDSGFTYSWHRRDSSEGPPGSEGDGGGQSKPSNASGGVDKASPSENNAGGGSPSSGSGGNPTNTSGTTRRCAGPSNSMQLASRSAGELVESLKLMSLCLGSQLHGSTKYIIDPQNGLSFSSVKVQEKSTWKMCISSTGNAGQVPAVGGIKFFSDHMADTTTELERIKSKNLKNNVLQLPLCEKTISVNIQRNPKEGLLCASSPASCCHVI
The method in brief:
as §1

The next experiment deals with T3, TXK (UniProt P42681).
T3 sequence (whole entry): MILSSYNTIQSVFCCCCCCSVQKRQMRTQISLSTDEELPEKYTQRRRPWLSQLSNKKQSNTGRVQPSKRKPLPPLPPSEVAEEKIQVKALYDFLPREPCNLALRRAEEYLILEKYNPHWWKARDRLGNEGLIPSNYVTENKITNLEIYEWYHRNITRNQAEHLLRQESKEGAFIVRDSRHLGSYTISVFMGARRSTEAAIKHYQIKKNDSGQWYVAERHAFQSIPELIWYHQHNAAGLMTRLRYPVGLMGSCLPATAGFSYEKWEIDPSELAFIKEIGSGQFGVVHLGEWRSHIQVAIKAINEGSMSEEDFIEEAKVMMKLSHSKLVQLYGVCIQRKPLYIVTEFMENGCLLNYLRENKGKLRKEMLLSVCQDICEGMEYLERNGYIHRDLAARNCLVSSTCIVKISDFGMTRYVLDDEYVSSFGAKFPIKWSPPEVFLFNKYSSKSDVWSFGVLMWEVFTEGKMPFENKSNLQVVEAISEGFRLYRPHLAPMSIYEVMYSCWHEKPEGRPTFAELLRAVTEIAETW
The method, boiled down:
as §1

For a further experiment, the target named is CAMK1D (UniProt Q8IU85). The method in brief:
as §1

The target in the next experiment is T4, PBK (UniProt Q96KB5).
T4 sequence (whole entry): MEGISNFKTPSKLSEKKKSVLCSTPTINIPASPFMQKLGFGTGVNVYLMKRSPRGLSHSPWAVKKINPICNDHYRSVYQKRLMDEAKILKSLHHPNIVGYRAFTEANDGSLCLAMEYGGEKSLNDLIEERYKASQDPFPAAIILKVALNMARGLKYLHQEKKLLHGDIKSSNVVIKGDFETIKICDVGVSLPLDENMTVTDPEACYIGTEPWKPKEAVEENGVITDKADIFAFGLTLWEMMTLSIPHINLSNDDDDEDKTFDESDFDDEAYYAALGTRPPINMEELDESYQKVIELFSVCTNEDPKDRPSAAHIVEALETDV
The conditions noted are these: cell material: Jurkat cells. The method in brief: as §1

In a further experiment the target is UniProt Q6XUX3. To be noted: cell material: Lysate mix. The method, boiled down:
as §1

CAMK1D, sequence (Q8IU85 whole entry, looked up): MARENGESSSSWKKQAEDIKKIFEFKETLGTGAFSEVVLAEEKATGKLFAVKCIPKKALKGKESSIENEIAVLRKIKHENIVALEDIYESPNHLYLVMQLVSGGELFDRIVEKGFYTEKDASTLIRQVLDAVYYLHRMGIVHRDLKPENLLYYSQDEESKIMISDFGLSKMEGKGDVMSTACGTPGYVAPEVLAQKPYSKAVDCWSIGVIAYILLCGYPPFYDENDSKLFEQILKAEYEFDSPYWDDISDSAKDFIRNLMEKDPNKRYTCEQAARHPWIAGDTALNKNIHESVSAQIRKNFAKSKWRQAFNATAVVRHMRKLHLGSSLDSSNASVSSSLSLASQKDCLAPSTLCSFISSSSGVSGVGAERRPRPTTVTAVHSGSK
UniProt Q6XUX3, sequence (Q6XUX3 whole entry): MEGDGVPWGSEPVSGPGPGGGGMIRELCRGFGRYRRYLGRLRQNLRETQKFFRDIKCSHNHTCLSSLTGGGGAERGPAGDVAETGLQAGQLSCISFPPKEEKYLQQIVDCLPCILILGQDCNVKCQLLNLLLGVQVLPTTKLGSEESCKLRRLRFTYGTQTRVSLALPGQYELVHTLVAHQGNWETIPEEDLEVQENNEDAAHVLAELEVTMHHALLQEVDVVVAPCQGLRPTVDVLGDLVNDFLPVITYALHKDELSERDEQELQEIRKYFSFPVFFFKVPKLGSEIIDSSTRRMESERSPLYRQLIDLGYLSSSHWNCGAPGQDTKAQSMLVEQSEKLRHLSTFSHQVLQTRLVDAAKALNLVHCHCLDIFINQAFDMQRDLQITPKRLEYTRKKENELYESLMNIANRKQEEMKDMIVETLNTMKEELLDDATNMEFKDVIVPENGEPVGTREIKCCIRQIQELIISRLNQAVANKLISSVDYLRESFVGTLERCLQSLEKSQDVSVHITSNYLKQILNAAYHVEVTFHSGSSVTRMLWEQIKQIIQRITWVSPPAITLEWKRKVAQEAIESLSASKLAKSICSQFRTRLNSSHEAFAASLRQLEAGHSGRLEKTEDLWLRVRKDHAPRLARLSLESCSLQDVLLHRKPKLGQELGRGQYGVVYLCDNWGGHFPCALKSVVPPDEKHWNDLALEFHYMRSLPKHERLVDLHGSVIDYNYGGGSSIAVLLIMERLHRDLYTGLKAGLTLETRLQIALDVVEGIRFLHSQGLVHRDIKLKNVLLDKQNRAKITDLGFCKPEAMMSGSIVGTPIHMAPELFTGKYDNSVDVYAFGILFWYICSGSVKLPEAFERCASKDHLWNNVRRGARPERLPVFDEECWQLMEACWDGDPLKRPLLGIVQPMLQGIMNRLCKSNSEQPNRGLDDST

As a reminder, the pIC50 is −log10 of the IC50, conventionally taken in molar units. With `C#CCNC(=O)c1cc(Nc2cc(C3CC3)[nH]n2)nc(N2CCN(Cc3ccc(S(=O)(=O)F)cc3)CC2)n1`, the pIC50 on BRSK1 (cell material: Jurkat cells) is 6.05; on BRSK1 (cell material: Jurkat lysate), under 4.52; on PRKCH (cell material: Jurkat lysate) it was under 4.52; at SNRK (cell material: Jurkat cells) it was 5.47; at SNRK (cell material: Jurkat lysate), under 4.52; at TXK (cell material: Jurkat cells), 5.4. Also, the pIC50 on TXK (cell material: Jurkat lysate) was under 4.52; at CAMK1D (cell material: Jurkat cells) it was 5.94; at CAMK1D (cell material: Jurkat lysate), under 4.52; on PBK, under 4.52.

`C#CCNC(=O)c1cc(Nc2cc(C)[nH]n2)nc(N2CCN(Cc3ccc(S(=O)(=O)F)cc3)CC2)n1`: the pIC50 at UniProt Q6XUX3 is 5.

Consider `O=C(NCCNC(=O)c1cc(Nc2cc(C3CC3)[nH]n2)nc(N2CCN(Cc3ccc(S(=O)(=O)F)cc3)CC2)n1)OC1CC/C=C/CCC1` (stereo unspecified), for which the pIC50 at BRSK1 (cell material: Jurkat cells) was 6.6; at BRSK1 (cell material: Jurkat lysate) it was under 4.52; on UniProt Q6XUX3, 5.77; on PRKCH (cell material: Jurkat cells) it was under 4.52; at PRKCH (cell material: Jurkat lysate), under 4.52; at SNRK (cell material: Jurkat lysate), under 4.52. The pIC50 at TXK (cell material: Jurkat cells) is under 4.52; on TXK (cell material: Jurkat lysate) it was under 4.52; on CAMK1D (cell material: Jurkat cells) it was 5.82; on PBK, under 4.52.

The values above are taken from the supplement of paper PMC12076712.
